# Test results taken from ChEMBL document CHEMBL5226288, “A perspective on medicinal chemistry approaches towards adenomatous polyposis coli and Wnt signal based colorectal cancer inhibitors” (Eur J Med Chem, 2021).
# Non-standard residues stand in square brackets, D forms with d. Residues, ends and D or L forms follow the SMILES beside them. Hica(2S) = CC(C)C[C@H](O)C(=O)O; NMeV = CN[C@H](C(=O)O)C(C)C; NMeA = CN[C@@H](C)C(=O)O; βAla = NCCC(=O)O
# Legend:
# CBP/beta catenin = CBP/beta catenin (Homo sapiens, UniProt P35222+Q92793); assay: Antagonist activity at CBP/beta-catenin (unknown origin) protein-protein interaction; format: protein assay
# Sequence of CBP/beta catenin (Q92793 whole entry): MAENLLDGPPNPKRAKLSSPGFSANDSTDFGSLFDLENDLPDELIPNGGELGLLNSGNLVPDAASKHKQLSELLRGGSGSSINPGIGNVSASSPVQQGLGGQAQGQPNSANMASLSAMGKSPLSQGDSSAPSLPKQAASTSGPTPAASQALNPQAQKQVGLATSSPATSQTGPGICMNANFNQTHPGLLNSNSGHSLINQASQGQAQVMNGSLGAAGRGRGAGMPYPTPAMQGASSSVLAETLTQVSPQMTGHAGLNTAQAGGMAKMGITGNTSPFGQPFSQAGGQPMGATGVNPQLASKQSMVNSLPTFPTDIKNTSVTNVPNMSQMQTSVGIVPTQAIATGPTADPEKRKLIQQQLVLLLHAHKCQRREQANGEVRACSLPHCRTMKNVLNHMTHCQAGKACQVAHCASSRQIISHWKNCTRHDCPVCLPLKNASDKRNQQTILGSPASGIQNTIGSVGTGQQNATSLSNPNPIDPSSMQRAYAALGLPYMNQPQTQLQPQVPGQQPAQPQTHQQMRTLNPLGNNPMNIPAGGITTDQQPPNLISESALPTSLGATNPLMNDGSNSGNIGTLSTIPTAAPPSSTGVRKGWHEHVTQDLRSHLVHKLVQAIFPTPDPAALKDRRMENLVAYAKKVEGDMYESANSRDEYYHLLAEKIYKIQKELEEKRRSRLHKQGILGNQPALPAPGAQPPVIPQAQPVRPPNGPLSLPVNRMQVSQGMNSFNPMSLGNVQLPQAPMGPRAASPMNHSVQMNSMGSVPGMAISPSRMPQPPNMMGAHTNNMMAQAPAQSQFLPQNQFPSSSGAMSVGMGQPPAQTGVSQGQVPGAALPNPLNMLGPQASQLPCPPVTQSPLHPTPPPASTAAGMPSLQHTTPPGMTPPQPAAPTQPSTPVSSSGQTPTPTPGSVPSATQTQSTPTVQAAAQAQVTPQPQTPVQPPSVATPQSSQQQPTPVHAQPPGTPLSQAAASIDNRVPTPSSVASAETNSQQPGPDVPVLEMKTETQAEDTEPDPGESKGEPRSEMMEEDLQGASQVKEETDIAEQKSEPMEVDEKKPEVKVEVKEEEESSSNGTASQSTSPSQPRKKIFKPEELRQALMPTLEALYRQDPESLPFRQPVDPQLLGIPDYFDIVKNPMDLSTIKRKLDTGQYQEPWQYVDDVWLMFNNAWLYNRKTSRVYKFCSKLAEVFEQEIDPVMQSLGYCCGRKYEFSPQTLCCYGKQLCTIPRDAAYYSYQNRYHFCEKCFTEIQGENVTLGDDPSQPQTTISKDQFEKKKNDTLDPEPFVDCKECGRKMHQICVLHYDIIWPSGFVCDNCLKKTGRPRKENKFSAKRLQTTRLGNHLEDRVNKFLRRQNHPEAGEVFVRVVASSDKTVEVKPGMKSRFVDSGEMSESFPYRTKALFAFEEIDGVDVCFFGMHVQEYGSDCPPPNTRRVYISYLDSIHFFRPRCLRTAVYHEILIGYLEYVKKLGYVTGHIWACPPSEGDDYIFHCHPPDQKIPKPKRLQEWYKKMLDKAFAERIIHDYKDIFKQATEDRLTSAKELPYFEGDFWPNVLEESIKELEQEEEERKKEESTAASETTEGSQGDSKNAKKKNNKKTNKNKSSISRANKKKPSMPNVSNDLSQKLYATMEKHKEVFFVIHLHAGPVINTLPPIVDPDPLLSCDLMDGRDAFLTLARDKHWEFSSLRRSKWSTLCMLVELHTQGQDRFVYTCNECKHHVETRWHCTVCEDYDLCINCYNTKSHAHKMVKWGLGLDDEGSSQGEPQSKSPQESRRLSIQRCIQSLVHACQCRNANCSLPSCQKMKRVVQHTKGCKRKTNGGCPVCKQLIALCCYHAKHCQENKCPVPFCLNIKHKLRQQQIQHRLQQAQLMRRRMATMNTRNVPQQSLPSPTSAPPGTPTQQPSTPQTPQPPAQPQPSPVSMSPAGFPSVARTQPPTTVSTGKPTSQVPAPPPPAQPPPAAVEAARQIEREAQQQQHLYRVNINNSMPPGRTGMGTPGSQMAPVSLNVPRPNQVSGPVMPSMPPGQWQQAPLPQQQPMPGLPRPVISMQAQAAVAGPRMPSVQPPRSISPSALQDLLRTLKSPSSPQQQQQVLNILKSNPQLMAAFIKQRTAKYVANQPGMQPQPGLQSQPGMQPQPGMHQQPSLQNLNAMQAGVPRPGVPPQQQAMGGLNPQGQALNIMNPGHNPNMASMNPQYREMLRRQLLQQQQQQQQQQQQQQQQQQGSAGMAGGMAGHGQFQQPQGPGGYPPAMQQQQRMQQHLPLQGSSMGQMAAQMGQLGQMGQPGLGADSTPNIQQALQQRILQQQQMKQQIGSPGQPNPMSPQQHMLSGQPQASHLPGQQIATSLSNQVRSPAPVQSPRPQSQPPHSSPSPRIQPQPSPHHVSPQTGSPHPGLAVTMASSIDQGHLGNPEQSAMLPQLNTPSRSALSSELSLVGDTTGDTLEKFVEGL
# Sequence of CBP/beta catenin (P35222 whole entry): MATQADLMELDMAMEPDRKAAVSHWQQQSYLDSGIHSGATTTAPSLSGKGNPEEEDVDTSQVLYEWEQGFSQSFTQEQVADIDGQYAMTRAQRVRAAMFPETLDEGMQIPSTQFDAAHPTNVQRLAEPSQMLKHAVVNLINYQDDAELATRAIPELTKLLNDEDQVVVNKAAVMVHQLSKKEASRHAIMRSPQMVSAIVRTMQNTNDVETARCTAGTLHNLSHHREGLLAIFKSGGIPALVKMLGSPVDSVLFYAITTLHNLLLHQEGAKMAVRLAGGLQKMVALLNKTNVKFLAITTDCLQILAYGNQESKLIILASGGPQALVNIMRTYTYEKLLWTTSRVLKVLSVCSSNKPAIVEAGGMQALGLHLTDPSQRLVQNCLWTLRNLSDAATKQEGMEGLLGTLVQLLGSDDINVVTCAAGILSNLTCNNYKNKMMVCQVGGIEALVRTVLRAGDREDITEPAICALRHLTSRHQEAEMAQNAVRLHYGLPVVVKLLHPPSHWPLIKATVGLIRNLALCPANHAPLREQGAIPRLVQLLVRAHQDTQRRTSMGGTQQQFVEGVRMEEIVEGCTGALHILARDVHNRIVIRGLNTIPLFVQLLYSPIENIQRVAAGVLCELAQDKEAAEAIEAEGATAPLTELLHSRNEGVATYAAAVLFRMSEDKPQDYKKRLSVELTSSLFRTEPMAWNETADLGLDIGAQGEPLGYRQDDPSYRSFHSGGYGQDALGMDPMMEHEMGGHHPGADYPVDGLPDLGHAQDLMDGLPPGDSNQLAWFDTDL
# [1] = Inhibition of Wnt signalling in human HEK293T cells expressing Topflash and renilla luciferase reporter gene incubated for 24 hrs by Dual-luciferase assay; format: cell-based; settings: HEK-293T
# LoVo [2] = assay: Anticancer activity against human LoVo cells assessed as reduction in cell viability incubated for 24 hrs by MTT assay; format: functional, cell-based
# SW480 [3] = assay: Anticancer activity against human SW480 cells assessed as reduction in cell viability incubated for 24 hrs by MTT assay; format: functional, cell-based; settings: SW480, 24 h
# SW480 [4] = assay: Anticancer activity against human SW480 cells assessed as cell growth inhibition incubated for 24 hrs by MTS assay; format: functional
# SW480 [5] = assay: Anticancer activity against human SW480 cells assessed as reduction in cell viability incubated for 72 hrs; format: functional, cell-based; settings: SW480, 72 h
# HCT-116 [6] = assay: Anticancer activity against human HCT-116 cells assessed as reduction in cell viability incubated for 72 hrs; format: functional, cell-based; settings: HCT-116, 72 h
# DNA polymerase beta = DNA polymerase beta (Homo sapiens, UniProt P06746); assay: Inhibition of human DNA polymerase beta by fluorescence anisotropy
# DLD-1 = assay: Antiproliferative activity against human DLD-1 cells assessed as reduction in cell viability by WST assay; format: functional, cell-based
# LoVo [7] = assay: Antiproliferative activity against human LoVo cells assessed as reduction in cell viability; format: functional, cell-based
# HCT-116 [8] = assay: Antiproliferative activity against human HCT-116 cells assessed as reduction in cell proliferation incubated for 72 hrs by CellTiter-Glo assay; format: functional, cell-based; settings: HCT-116, 72 h
# KM12 = assay: Anticancer activity against human KM12 cells assessed as reduction in cell viability incubated for 24 hrs by CCK-8 assay; format: functional, cell-based; settings: KM12, 24 h
# SW-620 = assay: Anticancer activity against human SW-620 cells assessed as reduction in cell viability incubated for 24 hrs by CCK-8 assay; format: functional, cell-based; settings: SW-620, 24 h
# SW480 [9] = assay: Antiproliferative activity against human SW480 cells assessed as reduction in cell proliferation incubated for 12 to 24 hrs by CCK-8 assay; format: functional, cell-based
# HCT-116 [10] = assay: Antiproliferative activity against human HCT-116 cells assessed as reduction in cell proliferation incubated for 12 to 24 hrs by CCK-8 assay; format: functional, cell-based
# SW480 [11] = assay: Anticancer activity against human SW480 cells assessed as reduction in cell viability incubated for 72 hrs by MTT assay; format: functional, cell-based; settings: SW480, 72 h
# HCT-116 [12] = assay: Antiproliferative activity against human HCT-116 cells assessed as reduction in cell viability incubated for 72 hrs by MTS assay; format: functional, cell-based; settings: HCT-116, 72 h
# SW48 = assay: Anticancer activity against human SW48 cells assessed as cell growth inhibition; format: functional, cell-based
# [13] = Inhibition of Wnt1 signalling in human SW480 cells expressing ST-Luc and renilla firefly luciferase incubated for 24 hrs by dual-luciferase reporter assay; format: cell-based; settings: SW480, 24 h
# [14] = Inhibition of Wnt1 signalling in human HCT-116 cells expressing ST-Luc and renilla firefly luciferase incubated for 24 hrs by dual-luciferase reporter assay; format: cell-based; settings: HCT-116, 24 h
# [15] = target: Catenin beta-1/Transcription factor 7 (Homo sapiens, UniProt P35222+P36402); assay: Inhibition of human beta-catenin (142 to 686 residues)/human TCF (7 to 51 residues) protein-protein interaction incubated for 3 hrs by fluorescence polarization assay
# Sequence of Catenin beta-1/Transcription factor 7 (P36402 whole entry, the tested form may be a part): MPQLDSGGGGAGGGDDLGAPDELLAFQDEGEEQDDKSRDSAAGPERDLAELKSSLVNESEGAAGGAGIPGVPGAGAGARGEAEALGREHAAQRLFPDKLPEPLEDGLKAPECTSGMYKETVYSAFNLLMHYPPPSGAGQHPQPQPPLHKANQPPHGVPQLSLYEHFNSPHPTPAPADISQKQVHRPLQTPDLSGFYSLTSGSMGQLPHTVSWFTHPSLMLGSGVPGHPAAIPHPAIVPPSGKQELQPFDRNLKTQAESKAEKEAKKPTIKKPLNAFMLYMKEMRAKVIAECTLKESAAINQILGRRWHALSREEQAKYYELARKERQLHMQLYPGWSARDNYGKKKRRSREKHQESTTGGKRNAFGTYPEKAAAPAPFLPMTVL
# Sequence of Catenin beta-1/Transcription factor 7 (P35222 whole entry, the tested form may be a part): as the sequence (P35222 whole entry) above
# HCT-116 [16] = assay: Anticancer activity against human HCT-116 cells assessed as reduction in cell proliferation incubated for 48 hrs by sulforhodamine B assay; format: functional, cell-based; settings: HCT-116, 48 h
# SW480 [17] = assay: Anticancer activity against human SW480 cells assessed as reduction in cell proliferation incubated for 48 hrs by sulforhodamine B assay; format: functional, cell-based; settings: SW480, 48 h
# [18] = Anticancer activity against human colorectal cancer cell lines assessed as reduction in cell viability incubated for 24 to 72 hrs by MTT assay; format: functional, cell-based
# SW480 [19] = assay: Antiproliferative activity against human SW480 cells assessed as reduction in cell viability incubated for 24 hrs by CCK-8 assay; format: functional, cell-based; settings: SW480, 24 h
# HT-29 = assay: Antiproliferative activity against human HT-29 cells assessed as reduction in cell viability; format: functional, cell-based
# SW480 [20] = assay: Antiproliferative activity against human SW480 cells expressing firefly and renilla luciferase assessed as reduction in cell growth incubated for 3 hrs by TOPFlash luciferase assay; format: functional, cell-based; settings: SW480, 3 h
# SW480 [21] = assay: Anticancer activity against human SW480 cells assessed as reduction in cell viability incubated for 12 to 24 hrs by MTS assay; format: functional, cell-based
smiles,measurement,setting,value
C[C@H]1[C@H]2N(C(=O)CN(C)N2C(=O)NCc2ccccc2)[C@@H](Cc2ccc(OP(=O)(O)O)cc2)C(=O)N1Cc1cccc2cccnc12,IC50,CBP/beta catenin,0.15 µM
CCn1c2ccccc2c2cc(C(=O)OC(C)C)nc(-c3cccc4ccccc34)c21,IC50,[1],2.8 µM
C[C@@H]1O[C@@H](O[C@H]2[C@H](O[C@H]3[C@H](O[C@H]4CC[C@@]5(C)C6CC=C7[C@@H]8CC(C)(C)CC[C@]8(C(=O)O)CC[C@]7(C)C6(C)CC[C@H]5C4(C)C)OC[C@H](O)[C@@H]3O)O[C@H](CO)[C@@H](O)[C@@H]2O)[C@H](O)[C@H](O)[C@H]1O (stereo partly drawn),IC50,LoVo [2],1.01 µM
same,IC50,SW480 [3],1.81 µM
CN1CC(=O)N2C(CN(Cc3cccc4ccccc34)C[C@@H]2Cc2ccc(O)cc2)N1C(=O)NCc1ccccc1 (stereo partly drawn),GI50,SW480 [4],0.98 µg/mL
Cc1cc(/C=C/c2ccc3cc(N(C)C)ccc3[n+]2C)c(C)n1-c1ccccc1,EC50,SW480 [5],0.056 µM
same,EC50,HCT-116 [6],0.043 µM
Cc1ccc(Nc2nc(NS(=O)(=O)c3cc(C)c(C)cc3C)n[nH]2)cc1,IC50,DNA polymerase beta,5 µM
O=C1[C@@H](Cc2ccccc2)N2C(=O)CCN(C(=O)NCc3ccccc3)[C@@H]2CN1Cc1cccc2ccccc12,IC50,DLD-1,21.5 µM
COc1cc2c(cc1OC)[C@@]13CCN4CC5=CCO[C@H]6CC(=O)N2[C@H]1[C@H]6[C@H]5C[C@H]43 [BRUCINE],IC50,LoVo [7],18.2 µM
CC(=O)c1cc2c(o1)C(=O)c1ccccc1C2=O [NAPABUCASIN],IC50,HCT-116 [8],0.3 µM
CO[C@@H]1C[C@@H](C[C@H]2CC[C@H](C)[C@H]([C@@H](C)C(=O)O)O2)O[C@]2(O[C@](C)([C@H]3CC[C@@](C)([C@@H]4O[C@@H]([C@H]5O[C@@](O)(CO)[C@H](C)C[C@@H]5C)C[C@@H]4C)O3)C[C@H]2C)[C@@H]1C [NIGERICIN],IC50,KM12,8.48 µM
same,IC50,SW-620,1.39 µM
O=c1[nH]c2ccccc2n1C1CCN(CCCC(c2ccc(F)cc2)c2ccc(F)cc2)CC1 [PIMOZIDE],IC50,SW480 [9],10 µM
same,IC50,HCT-116 [10],10 µM
C[C@@H]1O[C@H]2O[C@H]3[C@@H](OC[C@H](O)[C@@H]3O)OC(=O)[C@@H]3CC(C)(C)C[C@H]4C5=CC[C@@H]6[C@@]7(C)C[C@H](O)[C@H](O[C@@H]8O[C@H](CO)[C@@H](O)[C@H](O)[C@H]8O[C@@H]8OC[C@H](OC(=O)C[C@](C)(O)CC(=O)O[C@@H]1[C@@H](O[C@@H]1OC[C@@H](O)[C@H](O)[C@H]1O)[C@H]2O)[C@H](O)[C@H]8O)[C@@](C)(CO)[C@@H]7CC[C@@]6(C)[C@]5(C)CCC34,IC50,SW480 [11],40 µM
C=CCN1CC(=O)N2C(CN(Cc3cccc4cn(C)nc34)C[C@@H]2Cc2ccc(OP(=O)(O)O)cc2)N1C(=O)NCc1ccccc1 (stereo partly drawn),IC50,HCT-116 [12],0.91 µM
COc1cc(OC)c2c(c1)O[C@@]1(c3ccc(Br)cc3)[C@H](c3ccccc3)C[C@@H](O)[C@@]21O,IC50,SW48,0.01 µM
CC[C@]12CCCN3CCc4c(n(c5ccccc45)[C@@H](c4ccc(O)c5c4N[C@H]4CC[C@]6(CC)CCCN7CC[C@]54[C@@H]76)C1)C32 (stereo partly drawn),IC50,[13],4.94 µM
same,IC50,[14],4.47 µM
Cn1ncc2cc(CCc3nn[nH]n3)ccc21,IC50,[15],3.14 µM
CC[C@H](C)[C@@H]1NC(=O)[C@@H]2CCCN2C(=O)[C@H](CC(C)C)OC(=O)CCNC(=O)[C@H](C)N(C)C(=O)[C@H](C(C)C)N(C)C1=O [destruxin B] (cyclo([Hica(2S)]PI[NMeV][NMeA][βAla])),IC50,HCT-116 [16],6.3 µM
same,IC50,SW480 [17],6.25 µM
C[C@H]1[C@H](OC(=O)CCC(=O)O)O[C@@H]2O[C@@]3(C)CC[C@H]4[C@H](C)CC[C@@H]1[C@@]24OO3 [ARTESUNATE],IC50,[18],20.3 µM
CC(C)[C@]12O[C@H]1[C@@H]1O[C@]13[C@]1(O[C@H]1C[C@H]1C4=C(CC[C@@]13C)C(=O)OC4)[C@@H]2O [TRIPTOLIDE],IC50,SW480 [19],0.05 µM
Nc1ccc(O)c(C(=O)O)c1 [MESALAMINE],IC50,HT-29,20000 µM
O=C(NCc1ccccc1)N1CCC(=O)N2C1CN(Cc1cccc3ccccc13)C[C@@H]2Cc1ccc(O)cc1 (stereo partly drawn),IC50,SW480 [20],8.07 µM
O=C(Nc1ccc([N+](=O)[O-])cc1Cl)c1cc(Cl)ccc1O [NICLOSAMIDE],IC50,SW480 [21],1 µM
